Reference: patent publication US20260364072A1, “METHODS FOR PROMOTING EXPANSION OF HUMAN CD34+ CELLS IN VIVO AND FOR PROMOTING NEURAL REGENERATION” (THE REGENTS OF THE UNIVERSITY OF CALIFORNIA, priority 2023, published 2026)

System: MDA-MB-231 cells
Test: IVIS total flux in MDA-MB-231 transplanted mice
Assay type: in vivo, human cells in Rag2 neonatal mice
Settings: 0 day after completing the dosing plan; compared to vehicle control
Source text: FIG. 5 graphically illustrates IVIS (In Vivo Imaging System) results of ADAR1-MDA-MB-231 transplanted Rag2 mouse models, and IVIS images were taken at 6 weeks after transplant (FIG. 5A), after two weeks of therapy (FIG. 5B), and one week after therapy was completed (FIG. 5C), as discussed in further detail in Example 5, below.
Ten thousand (10k) MDA-MB-231 cells were intrahepatically transplanted into Rag2 neonatal mice, then treated with fedratinib, rebecsinib, or a combination of fedratinib and rebecsinib. IVIS images were taken at 6 weeks after transplant (FIG. 5A), after two weeks of therapy (FIG. 5B), and one week after therapy was completed (FIG. 5C). The IVIS signals from the mice were graphed by groups.
The IVIS images of these mice were taken at 0 day after completing the dosing plan and are graphed by their total flux.

CC[C@H](OC)[C@@H](C)[C@H]1O[C@@H]1[C@@H](O)[C@H](C)/C=C/C=C(\C)[C@H]1OC(=O)C[C@H](O)CC[C@@](C)(O)[C@@H](OC(C)=O)/C=C/[C@@H]1C [Rebecsinib]
total flux (IVIS): significantly decreased
